Consider one sequence from patent US20120123760A1, “METHOD FOR DESIGNING AN APTAMER” (Technology Innovations, LLC, priority 2010, published 2012).

Test [1] in a line: Fluorescence assay of 6FAM-labelled aptamer bound to DPPC+DPPS liposomes. In kind it is binding. From the text: (§1) Two of the top-ranked 6-mer DNA designed aptamers targeting PS were chosen for experimental investigations. Both sequences containing fluorescence tags (6FAM is on the 3′ end of the DNA sequence) were obtained from Integrated DNA Technologies, Commercial Park, Coralville Iowa, USA. 96 well assay plates for fluorescence assays using FLUOstar OPTIMA (BMG Labtech GmbH, Offenburg, Germany) were from Corning Inc., New York, USA. Two lipids, 1,2-dipalmitoyl-sn-glycero-3-phosphatidylcholine (DPPC) and 1,2-dipalmitoyl-sn-glycero-3-phospho-L-serine (sodium salt) (DPPS) in chloroform stock and cholesterol (powder) were obtained from Avanti Polar Lipids (Alabaster, Ala., USA). They were used without further purification.
(§2) Two liposomes were prepared for studying binding affinity and specificity. One uses DPPC and DPPS at a 10:1 DPPC/DPPS molar ratio and the second one uses DPPC alone. […] 100 μL from this final solution was loaded into each of the 96 wells on the fluorescence plate to measure fluorescence of the samples. […]
(§3) Both sequences containing fluorescence tags (6FAM is on the 3′ end of the DNA sequence) were obtained from Integrated DNA Technologies, Commercial Park, Coralville Iowa, USA. 96 well assay plates for fluorescence assays using FLUOstar OPTIMA (BMG Labtech GmbH, Offenburg, Germany) were from Corning Inc., New York, USA. […]

A short description of test [2]: Fluorescence assay of 6FAM-labelled aptamer bound to DPPC alone liposomes (control without PS). The note with it: FIG. 8 right panel. Format: binding.
From the text: as §1, §2, §3

As to AAAGAC [PS-aptamer II], the “binding affinity (inferred from fluorescence)” value in test [1] is reported as “relatively better or stronger binding affinity than PS-aptamer I”. For the same sequence, the “fluorescence level from bound DNA aptamer” value in test [1] (FIG. 8 left panel, aptamer beyond 0.165 nmol) is recorded as “higher fluorescence level than PS-aptamer I”; in test [2], “binds either poorly or not at all”.
